The text below walks through data of article PMC10761680 (Scientific Reports, 2024).

Where two headings read alike, the source gives them in different places.

For data set [1], the target named is human soluble ENPP1. Also on record: method as in earlier work. As to conditions: substrate ATP, Colorimetry (Molybdenum-phosphate complex), pH 9.0; cited from earlier work.
In data set [2] the target is human soluble ENPP1. The conditions noted are these: substrate p-Nph-5′-TMP, Colorimetry (p-nitrophenol), cited from earlier work; for Ki: pH 9.0; for IC50: read-out: IC50 (shown in the Ki column).
Data set [3] deals with human soluble ENPP1. As to conditions: substrate ATP, Capillary Electrophoresis, pH 9.0; cited from earlier work.
Data set [4] concerns the target human soluble ENPP1. As to conditions: substrate cGAMP, Bioluminescence (Enzyme-coupling), cited from earlier work.
In data set [5] the target is T1, human ENPP1 (Homo sapiens, UniProt P22413).
T1 sequence (P22413 98-925 limits assumed): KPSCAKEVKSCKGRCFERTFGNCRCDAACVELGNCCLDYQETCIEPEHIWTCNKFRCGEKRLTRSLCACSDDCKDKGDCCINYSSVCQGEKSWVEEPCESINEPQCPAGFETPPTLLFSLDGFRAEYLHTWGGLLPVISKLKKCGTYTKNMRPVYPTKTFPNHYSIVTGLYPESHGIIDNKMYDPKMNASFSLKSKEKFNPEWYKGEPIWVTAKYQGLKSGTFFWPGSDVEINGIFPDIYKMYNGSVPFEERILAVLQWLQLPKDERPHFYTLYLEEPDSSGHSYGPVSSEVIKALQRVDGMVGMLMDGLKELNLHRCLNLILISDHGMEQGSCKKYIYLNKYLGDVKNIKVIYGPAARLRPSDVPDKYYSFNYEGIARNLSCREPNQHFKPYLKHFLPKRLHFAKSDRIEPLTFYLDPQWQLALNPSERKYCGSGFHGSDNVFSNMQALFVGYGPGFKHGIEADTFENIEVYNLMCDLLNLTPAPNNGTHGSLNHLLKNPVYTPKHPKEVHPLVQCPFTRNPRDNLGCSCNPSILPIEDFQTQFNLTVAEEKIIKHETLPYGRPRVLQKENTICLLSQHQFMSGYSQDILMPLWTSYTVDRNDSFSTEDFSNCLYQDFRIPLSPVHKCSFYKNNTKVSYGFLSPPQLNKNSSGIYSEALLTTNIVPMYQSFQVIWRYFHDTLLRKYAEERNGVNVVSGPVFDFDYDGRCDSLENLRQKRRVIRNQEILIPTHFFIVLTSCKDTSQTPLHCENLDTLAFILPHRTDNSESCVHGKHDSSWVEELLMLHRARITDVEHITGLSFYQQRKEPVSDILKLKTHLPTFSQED
In words: Fluorescent screening of ENPP1 inhibitors using ATP as substrate and Kyoto Green as reporter. The class given is biochemical. On the set-up: purchased R&D systems (Minneapolis, USA). The conditions noted are these: 2 μM ATP, 11.5 nM ENPP1, 20 min, pH 7.4; for ENPP1 inhibition in Kyoto Green screening (in words): 10 μM or maximum soluble concentration.

Data set [6] in a line: Solubility in water (solution preparation). In kind it is physicochemical.
In data set [7] the target is T1, human ENPP1. In words: biochemical.
Data set [8] deals with T1, human ENPP1. The data set is described as follows: Bioluminescent assay of ENPP1 using luciferin/luciferase ATP assay kit.
The target in data set [9] is T1, human ENPP1. The data set is described as follows: Fluorescent determination of IC50/Ki using Kyoto Green (ATP hydrolysis).
Data set [10] is described as follows: pH-dependent stability of quercetin in aqueous solution (UV-visible spectrum). The class given is physicochemical. As to conditions: 50 mM HEPES buffer (pH 7.4), 60 min, 7 µM. The procedure: page 8: 0 → 60 min 0 → 60 min Figure S7.pH -dependent stability of quercetin in aqueous solution. Time course of UV- visible spectrum (JASCO […], Japan) of quercetin ( 7 μ M) in50 m M HEPES buffer (pH 7.4) (above) or 50 mM borate buffer (pH 9.0) (below) . Inset: Absorbance at λ ma x ( 403 nm). Ratio of ethanol : buffer = 1 : 10 v/v. The buffer contain ed 10 mM NaCl, 1 mM MgCl 2, and 0.02 mM Zn(NO3)2. Measurements were performed at 25± 2 °C. S8 […]

Data set [11] addresses T1, human ENPP1. In words: Colorimetric UV-visible assay of ENPP1 using p-Nph-5′-TMP as chromogenic substrate. In kind it is biochemical. On the set-up: purchased R&D systems (Minneapolis, USA).
The target in data set [12] is T1, human ENPP1. On the set-up: purchased R&D systems (Minneapolis, USA); method as in PMID 28011303. The conditions noted are these: substrate of human ENPP1, pH 9.0; cited from earlier work.
Where [13] appears, read: Kyoto Green fluorescence method, ATP, pH 7.4.

As to `Cc1nc2ncnn2c(N(C)C)c1Cc1cccc(N)c1` [Compound 1], the Ki (usually a measure of affinity in units of concentration, obtained from inhibition or displacement) was 2000 nM at human soluble ENPP1 [1] and 480 nM on human soluble ENPP1 [2].

As to `COc1ccc(NC(=O)CSc2nc3c(N)ncnc3[nH]2)cc1OC` [Compound 3], the Ki at human soluble ENPP1 [3] was 18000 nM; at human soluble ENPP1 [2] it was 5 nM.

Consider `COc1cccc2c(NCc3ccc(P(=O)(O)O)cc3)c(C#N)cnc12` [Compound 5], for which the Ki on human soluble ENPP1 [4] (pH 7.4) is under 2 nM.

As for `CN1Cc2c(ncnc2N2CCC(C)(CNS(N)(=O)=O)CC2)NC1=O` [Compound 6], the IC50 – broadly, the concentration at which inhibition is half-maximal – in the data set with human soluble ENPP1 [4] (pH 8.5, read-out: IC50 (shown in the Ki column)) was 3.7 nM.

Regarding `O=c1c(O)c(-c2ccc(O)cc2)oc2cc(O)cc(O)c12` [Kaempferol, 3, 4′,5,7 -tetrahydroxyflavone], at human ENPP1 [5], the “ENPP1 inhibition in Kyoto Green screening (in words)” value is listed as “ineffective as inhibitors”.

With `O=c1c(O)c(-c2ccc(O)cc2O)oc2cc(O)cc(O)c12` [Morin, 3,5,7,2′,4′-pentahydroxyflavone], on human ENPP1 [5], the “ENPP1 inhibition in Kyoto Green screening (in words)” value is given as “ineffective as inhibitors”.

Take `O=c1c(O)c(-c2cc(O)c(O)c(O)c2)oc2cc(O)cc(O)c12` [Myricetin, 3,5,7,3′,4′,5′-hexahydroxyflavone]: the IC50 is 432 nM in the data set on human soluble ENPP1 [2] (pH 7.4) and 414 nM with human soluble ENPP1 [2] (pH 9.5).

As for `O=c1c(O)c(-c2ccc(O)c(O)c2)oc2cc(O)cc(O)c12` [Quercetin, 3,5,7,3′,4′-pentahydroxyflavone], in data set [6], the solubility in water result is listed as “poor solubility in water”. The Ki on human ENPP1 [7] was about 4 nM; at human ENPP1 [11] (substrate p-Nph-5′-TMP, Colorimetry (p-nitrophenol), pH 7.4, Cheng-Prusoff, KM 222 µM), 159 ± 73 nM. Further, the IC50 amounted to 5.5 ± 0.6 nM against human ENPP1 [8] and 4.5 ± 0.9 nM against human ENPP1 [9]. Further, at human ENPP1 [9] (setting [13]), the “inhibitory efficiency of quercetin relative to myricetin” value is ~ 8 folds. Also, the “inhibitory efficiency of quercetin relative to suramin” value against human ENPP1 [9] (setting [13]) was ~ 188 folds. Further, in data set [10], the stability in buffer result is “highly stable”. For the same compound, at human ENPP1 [11] (700 nM quercetin, 0.1 mM p-Nph-5′-TMP, 50 mM borate buffer pH 9.0, 6.5 nM ENPP1, time course 60 min), the “ENPP1 inhibition at pH 9.0 (in words)” value was “capable of inhibiting ENPP1 at pH 9.0, but this effect was observed only for the first 10 min”. For the same compound, the “Ki by colorimetric method relative to Ki by Kyoto Green and commercial ATP assays” value at human ENPP1 [11] (p-Nph-5′-TMP versus ATP as substrate) is listed as “approximately 40 fold”. For the same compound, the “reduction of Kyoto Green fluorescence change (F/F0-1) compared to the control group without an inhibitor” value on human ENPP1 [5] (10 μM compound) is listed as “over 90%”.

For `O=c1c(O[C@@H]2O[C@H](CO)[C@@H](O)[C@H](O)[C@H]2O)c(-c2ccc(O)c(O)c2)oc2cc(O)cc(O)c12` [Quercetin-3-glucoside, quercetin-3-glucoside], the results for the “ENPP1 inhibition in Kyoto Green screening (in words)” value at human ENPP1 [5] and at human ENPP1 [5] (listed as quercetin glucoside) were “did not inhibit ENPP1” and “ineffective as inhibitors”, respectively.

In the case of `Cc1cn([C@H]2C[C@H](O)[C@@H](COP(=O)(O)Oc3ccc([N+](=O)[O-])cc3)O2)c(=O)[nH]c1=O` [p-Nph-5′-TMP, p-nitrophenyl 5′-thymidine monophosphate], the Km (as a rule, the substrate concentration at which the rate is half of its maximum) on human ENPP1 [12] was 222 µM.
